Assay results published in US10081628B2, “Apoptosis-inducing agents for the treatment of cancer and immune and autoimmune diseases” (AbbVie Inc., priority 2013, dated 2018).

Legend:
RS4;11 cells = assay: RS4;11 cell viability assay (CellTiter Glo); type: cell-based; conditions: 10% human serum, 48 hours
From the text: The acute lymphoblastic leukemia (ALL) cell line RS4;11 was used as the primary human cell line to assess the cellular activity of Bcl-2 selective agents in vitro and their efficacy in vivo. Previous studies have shown by BH3 profiling, a mitochondrial assay that classifies blocks in the intrinsic apoptotic pathway, that RS4;11 cells were highly dependant on BCL-2 for survival and sensitive to the Bcl-2 family member inhibitor ABT-737 (Blood, 2008, Vol. 111, 2300-2309).
RS4;11 cells were cultured in RPMI-1640 supplemented with 2 mM L-glutamine, 10% FBS, 1 mM sodium pyruvate, 2 mM HEPES, 1% penicillin/streptomycin (Invitrogen), 4.5 g/L glucose and maintained at 37 C containing 5% CO2. To test for the cellular activity of compounds in vitro, cells were treated at 50,000 cells per well in 96-well microtiter plates in the presence of 10% human serum for 48 hours in a humidified chamber with 5% CO2. Cell cytotoxicity EC50 values were assessed using CellTiter Glo (Promega) according to the manufacturer's recommendations. The EC50 values were determined as a percentage of viable cells following treatment compared to the untreated control cells.

GST-Bcl-2 = GST-Bcl-2 (Homo sapiens, UniProt P10415); assay: TR-FRET Bcl-2 binding assay (F-Bak peptide probe); conditions: GST-Bcl-2 1 nM, F-Bak peptide probe 100 nM, Tb-anti-GST 1 nM; Wang's equation; '<' = below limit of detection
Sequence of GST-Bcl-2 (P10415 whole entry): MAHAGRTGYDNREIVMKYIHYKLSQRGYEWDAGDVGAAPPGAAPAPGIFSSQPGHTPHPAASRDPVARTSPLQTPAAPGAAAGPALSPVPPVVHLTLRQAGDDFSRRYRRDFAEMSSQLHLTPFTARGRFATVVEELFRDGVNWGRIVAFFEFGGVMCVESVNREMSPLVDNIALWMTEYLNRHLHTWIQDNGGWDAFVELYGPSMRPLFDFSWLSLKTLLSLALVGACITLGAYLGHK
Procedure: Determination of the utility of compounds of this invention as binders to and inhibitors of anti-apoptotic Bcl-2 proteins was performed using the Time Resolved-Fluorescence Resonance Energy Transfer (TR-FRET) Assay. Tb-anti-GST antibody was purchased from Invitrogen (Catalog No. PV4216).
Representative compounds were serially diluted in dimethyl sulfoxide (DMSO) starting at 50 μM (2× starting concentration; 10% DMSO) and 10 μL were transferred into a 384-well plate. The samples are then mixed on a shaker for 1 minute and incubated for an additional 3 hours at room temperature. For each assay, the probe/antibody and protein/probe/antibody were included on each assay plate as negative and positive controls, respectively. Fluorescence was measured on the Envision (Perkin Elmer) using a 340/35 nm excitation filter and 520/525 (F-Bak peptide) and 495/510 nm (Tb-labeled […] antibody) emission filters. Dissociation constants (Ki) are shown in TABLE 2 below and were determined using Wang's equation (Wang Z.-X., An Exact Mathematical Expression For Describing Competitive Binding Of Two Different Ligands To A Protein Molecule. FEBS Lett. 1995, 360:111-4).
The samples were then mixed on a shaker for 1 minute and incubated for an additional 3 hours at room temperature. For each assay, the probe/antibody and protein/probe/antibody were included on each assay plate as negative and positive controls, respectively. Fluorescence was measured on the Envision (Perkin Elmer) using a 340/35 nm excitation filter and 520/525 (F-Bak peptide) and 495/510 nm (Tb-labeled anti-Histidine antibody) emission filters.
Inhibition constants (Ki) for compounds were determined using Wang's equation (Wang Zx. An Exact Mathematical Expression For Describing Competitive Binding Of Two Different Ligands To A Protein Molecule. FEBS Lett. 1995, 360:111-4).
The inhibition constant (Ki) is the dissociation constant of an enzyme-inhibitor complex or a protein/small molecule complex, wherein the small molecule is inhibiting binding of one protein to another protein or peptide. So a large Ki value indicates a low binding affinity and a small Ki value indicates a high binding affinity. […] The compounds are therefore expected to have utility in treatment of diseases during which anti-apoptotic Bcl-2 protein is expressed. Biological Data

Row | SMILES | EC50 (RS4;11 cells) | Ki (GST-Bcl-2)
1 | CC1(C)CCC(CN2CCN(c3ccc(C(=O)NS(=O)(=O)c4ccc(NCC5(CO)COC5)c([N+](=O)[O-])c4)c(Oc4cnc5[nH]ccc5c4)c3)CC2)=C(c2ccc(Cl)cc2)C1 [Example 11, 4-(4-{[2-(4-chlorophenyl)-4,4-dimethylcyclohex-1-en-1-yl]methyl}piperazin-1-yl)-N-{[4-({[3-(hydroxymethyl)oxetan-3-yl]methyl}amino)-3-nitrophenyl]sulfonyl}-2-(1H-pyrrolo[2,3-b]pyridin-5-yloxy)benzamide] | 15 nM | < 0.1 nM
2 | CC1(C)CCC(CN2CCN(c3ccc(C(=O)NS(=O)(=O)c4ccc(NCC5CC(F)(F)C5)c([N+](=O)[O-])c4)c(Oc4cnc5[nH]ccc5c4)c3)CC2)=C(c2ccc(Cl)cc2)C1 [Example 28, 4-(4-{[2-(4-chlorophenyl)-4,4-dimethylcyclohex-1-en-1-yl]methyl}piperazin-1-yl)-N-[(4-{[(3,3-difluorocyclobutyl)methyl]amino}-3-nitrophenyl)sulfonyl]-2-(1H-pyrrolo[2,3-b]pyridin-5-yloxy)benzamide] | 120 nM | < 0.1 nM
3 | CC1(C)CCC(CN2CCN(c3ccc(C(=O)NS(=O)(=O)c4ccc(NCC5CCN(S(=O)(=O)C(F)(F)F)CC5)c([N+](=O)[O-])c4)c(Oc4cnc5[nH]ccc5c4)c3)CC2)=C(c2ccc(Cl)cc2)C1 [Example 29, 4-(4-{[2-(4-chlorophenyl)-4,4-dimethylcyclohex-1-en-1-yl]methyl}piperazin-1-yl)-N-({3-nitro-4-[({1-[(trifluoromethyl)sulfonyl]piperidin-4-yl}methyl)amino]phenyl}sulfonyl)-2-(1H-pyrrolo[2,3-b]pyridin-5-yloxy)benzamide] | 57 nM | < 0.1 nM
4 | CC1(C)CCC(CN2CCN(c3ccc(C(=O)NS(=O)(=O)c4ccc(NCC5CCN(S(C)(=O)=O)CC5)c([N+](=O)[O-])c4)c(Oc4cnc5[nH]ccc5c4)c3)CC2)=C(c2ccc(Cl)cc2)C1 [Example 30, 4-(4-{[2-(4-chlorophenyl)-4,4-dimethylcyclohex-1-en-1-yl]methyl}piperazin-1-yl)-N-{[4-({[1-(methylsulfonyl)piperidin-4-yl]methyl}amino)-3-nitrophenyl]sulfonyl}-2-(1H-pyrrolo[2,3-b]pyridin-5-yloxy)benzamide] | 27 nM | < 0.1 nM
5 | CC1(C)CCC(CN2CCN(c3ccc(C(=O)NS(=O)(=O)c4ccc(NCC5CC[S+]([O-])CC5)c([N+](=O)[O-])c4)c(Oc4cnc5[nH]ccc5c4)c3)CC2)=C(c2ccc(Cl)cc2)C1 (stereo not shown) [Example 32, 4-(4-{[2-(4-chlorophenyl)-4,4-dimethylcyclohex-1-en-1-yl]methyl}piperazin-1-yl)-N-[(3-nitro-4-{[(1-oxidotetrahydro-2H-thiopyran-4-yl)methyl]amino}phenyl)sulfonyl]-2-(1H-pyrrolo[2,3-b]pyridin-5-yloxy)benzamide] | 43 nM | < 0.1 nM
6 | CC1(C)CCC(CN2CCN(c3ccc(C(=O)NS(=O)(=O)c4ccc(NC[C@H]5CCOC(C)(C)C5)c([N+](=O)[O-])c4)c(Oc4cnc5[nH]ccc5c4)c3)CC2)=C(c2ccc(Cl)cc2)C1 [Example 33, 4-(4-{[2-(4-chlorophenyl)-4,4-dimethylcyclohex-1-en-1-yl]methyl}piperazin-1-yl)-N-{[4-({[(4S)-2,2-dimethyltetrahydro-2H-pyran-4-yl]methyl}amino)-3-nitrophenyl]sulfonyl}-2-(1H-pyrrolo[2,3-b]pyridin-5-yloxy)benzamide] | 44 nM | < 0.1 nM
7 | CC1(C)CCC(CN2CCN(c3ccc(C(=O)NS(=O)(=O)c4ccc(NCC5(C)COC5)c([N+](=O)[O-])c4)c(Oc4cnc5[nH]ccc5c4)c3)CC2)=C(c2ccc(Cl)cc2)C1 [Example 38, 4-(4-{[2-(4-chlorophenyl)-4,4-dimethylcyclohex-1-en-1-yl]methyl}piperazin-1-yl)-N-[(4-{[(3-methyloxetan-3-yl)methyl]amino}-3-nitrophenyl)sulfonyl]-2-(1H-pyrrolo[2,3-b]pyridin-5-yloxy)benzamide] | 30 nM | < 0.1 nM
8 | COC1(CNc2ccc(S(=O)(=O)NC(=O)c3ccc(N4CCN(CC5=C(c6ccc(Cl)cc6)CC(C)(C)CC5)CC4)cc3Oc3cnc4[nH]ccc4c3)cc2[N+](=O)[O-])COCCOC1 [Example 40, 4-(4-{[2-(4-chlorophenyl)-4,4-dimethylcyclohex-1-en-1-yl]methyl}piperazin-1-yl)-N-[(4-{[(6-methoxy-1,4-dioxepan-6-yl)methyl]amino}-3-nitrophenyl)sulfonyl]-2-(1H-pyrrolo[2,3-b]pyridin-5-yloxy)benzamide] | 76 nM | < 0.1 nM
9 | CC1(C)CCC(CN2CCN(c3ccc(C(=O)NS(=O)(=O)c4ccc(NC[C@H]5C[C@H](C#N)C5)c([N+](=O)[O-])c4)c(Oc4cnc5[nH]ccc5c4)c3)CC2)=C(c2ccc(Cl)cc2)C1 [Example 41, 4-(4-{[2-(4-chlorophenyl)-4,4-dimethylcyclohex-1-en-1-yl]methyl}piperazin-1-yl)-N-[(4-{[(trans-3-cyanocyclobutyl)methyl]amino}-3-nitrophenyl)sulfonyl]-2-(1H-pyrrolo[2,3-b]pyridin-5-yloxy)benzamide] | 47 nM | < 0.1 nM
10 | CC1(C)CCC(CN2CCN(c3ccc(C(=O)NS(=O)(=O)c4ccc(NC[C@H]5C[C@@H](C#N)C5)c([N+](=O)[O-])c4)c(Oc4cnc5[nH]ccc5c4)c3)CC2)=C(c2ccc(Cl)cc2)C1 [Example 42, 4-(4-{[2-(4-chlorophenyl)-4,4-dimethylcyclohex-1-en-1-yl]methyl}piperazin-1-yl)-N-[(4-{[(cis-3-cyanocyclobutyl)methyl]amino}-3-nitrophenyl)sulfonyl]-2-(1H-pyrrolo[2,3-b]pyridin-5-yloxy)benzamide] | 56 nM | < 0.1 nM
11 | CC1(C)CCC(CN2CCN(c3ccc(C(=O)NS(=O)(=O)c4ccc(NCC5CCS(=O)(=O)CC5)c([N+](=O)[O-])c4)c(Oc4cnc5[nH]ccc5c4)c3)CC2)=C(c2ccc(Cl)cc2)C1 [Example 43, 4-(4-{[2-(4-chlorophenyl)-4,4-dimethylcyclohex-1-en-1-yl]methyl}piperazin-1-yl)-N-[(4-{[(1,1-dioxidotetrahydro-2H-thiopyran-4-yl)methyl]amino}-3-nitrophenyl)sulfonyl]-2-(1H-pyrrolo[2,3-b]pyridin-5-yloxy)benzamide] | 31 nM | < 0.1 nM
12 | C[C@H]1CO[C@@H](CNc2ccc(S(=O)(=O)NC(=O)c3ccc(N4CCN(CC5=C(c6ccc(Cl)cc6)CC(C)(C)CC5)CC4)cc3Oc3cnc4[nH]ccc4c3)cc2[N+](=O)[O-])CO1 [Example 45, 4-(4-{[2-(4-chlorophenyl)-4,4-dimethylcyclohex-1-en-1-yl]methyl}piperazin-1-yl)-N-{[4-({[(2S,5S)-5-methyl-1,4-dioxan-2-yl]methyl}amino)-3-nitrophenyl]sulfonyl}-2-(1H-pyrrolo[2,3-b]pyridin-5-yloxy)benzamide] | 19 nM | < 0.1 nM
13 | CC(=O)N1CCC(CNc2ccc(S(=O)(=O)NC(=O)c3ccc(N4CCN(CC5=C(c6ccc(Cl)cc6)CC(C)(C)CC5)CC4)cc3Oc3cnc4[nH]ccc4c3)cc2[N+](=O)[O-])CC1 [Example 47, N-[(4-{[(1-acetylpiperidin-4-yl)methyl]amino}-3-nitrophenyl)sulfonyl]-4-(4-{[2-(4-chlorophenyl)-4,4-dimethylcyclohex-1-en-1-yl]methyl}piperazin-1-yl)-2-(1H-pyrrolo[2,3-b]pyridin-5-yloxy)benzamide] | 14 nM | < 0.1 nM
14 | CC1(C)CCC(CN2CCN(c3ccc(C(=O)NS(=O)(=O)c4ccc(NCC5COCCOC5)c([N+](=O)[O-])c4)c(Oc4cnc5[nH]ccc5c4)c3)CC2)=C(c2ccc(Cl)cc2)C1 [Example 51, 4-(4-{[2-(4-chlorophenyl)-4,4-dimethylcyclohex-1-en-1-yl]methyl}piperazin-1-yl)-N-({4-[(1,4-dioxepan-6-ylmethyl)amino]-3-nitrophenyl}sulfonyl)-2-(1H-pyrrolo[2,3-b]pyridin-5-yloxy)benzamide] | 39 nM | < 0.1 nM
